In article PMC4508061, “Selectivity Profiling and Biological Activity of Novel β-Carbolines as Potent and Selective DYRK1 Kinase Inhibitors” (PLoS ONE, 2015):
Where two headings read alike, the source gives them in different places.

Legend:
PIM2 = PIM2 (Homo sapiens, UniProt Q9P1W9); design: purchased ProQinase (Freiburg, Germany); conditions: 10 μM; cited from earlier work
CLK1 [1] = biological target: T1, CLK1 (Homo sapiens, UniProt P49759); design: purchased ProQinase (Freiburg, Germany); conditions: 10 μM; cited from earlier work
Target sequence in this assay (P49759 whole entry): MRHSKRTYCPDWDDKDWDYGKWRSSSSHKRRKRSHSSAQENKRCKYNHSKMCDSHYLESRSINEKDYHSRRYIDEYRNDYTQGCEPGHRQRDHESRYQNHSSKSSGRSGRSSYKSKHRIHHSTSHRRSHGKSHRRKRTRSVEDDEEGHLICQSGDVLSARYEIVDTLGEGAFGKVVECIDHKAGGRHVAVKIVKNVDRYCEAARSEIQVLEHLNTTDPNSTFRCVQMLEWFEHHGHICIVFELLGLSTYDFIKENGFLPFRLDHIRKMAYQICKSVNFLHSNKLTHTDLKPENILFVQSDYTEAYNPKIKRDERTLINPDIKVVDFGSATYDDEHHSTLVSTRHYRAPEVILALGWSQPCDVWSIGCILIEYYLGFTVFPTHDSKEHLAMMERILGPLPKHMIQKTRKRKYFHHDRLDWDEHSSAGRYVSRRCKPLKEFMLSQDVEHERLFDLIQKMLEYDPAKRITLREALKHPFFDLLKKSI

HIPK2 [2] = biological target: T2, HIPK2 (Homo sapiens, UniProt Q9H2X6); design: purchased ProQinase (Freiburg, Germany); conditions: 10 μM; cited from earlier work
Target sequence in this assay (Q9H2X6 whole entry): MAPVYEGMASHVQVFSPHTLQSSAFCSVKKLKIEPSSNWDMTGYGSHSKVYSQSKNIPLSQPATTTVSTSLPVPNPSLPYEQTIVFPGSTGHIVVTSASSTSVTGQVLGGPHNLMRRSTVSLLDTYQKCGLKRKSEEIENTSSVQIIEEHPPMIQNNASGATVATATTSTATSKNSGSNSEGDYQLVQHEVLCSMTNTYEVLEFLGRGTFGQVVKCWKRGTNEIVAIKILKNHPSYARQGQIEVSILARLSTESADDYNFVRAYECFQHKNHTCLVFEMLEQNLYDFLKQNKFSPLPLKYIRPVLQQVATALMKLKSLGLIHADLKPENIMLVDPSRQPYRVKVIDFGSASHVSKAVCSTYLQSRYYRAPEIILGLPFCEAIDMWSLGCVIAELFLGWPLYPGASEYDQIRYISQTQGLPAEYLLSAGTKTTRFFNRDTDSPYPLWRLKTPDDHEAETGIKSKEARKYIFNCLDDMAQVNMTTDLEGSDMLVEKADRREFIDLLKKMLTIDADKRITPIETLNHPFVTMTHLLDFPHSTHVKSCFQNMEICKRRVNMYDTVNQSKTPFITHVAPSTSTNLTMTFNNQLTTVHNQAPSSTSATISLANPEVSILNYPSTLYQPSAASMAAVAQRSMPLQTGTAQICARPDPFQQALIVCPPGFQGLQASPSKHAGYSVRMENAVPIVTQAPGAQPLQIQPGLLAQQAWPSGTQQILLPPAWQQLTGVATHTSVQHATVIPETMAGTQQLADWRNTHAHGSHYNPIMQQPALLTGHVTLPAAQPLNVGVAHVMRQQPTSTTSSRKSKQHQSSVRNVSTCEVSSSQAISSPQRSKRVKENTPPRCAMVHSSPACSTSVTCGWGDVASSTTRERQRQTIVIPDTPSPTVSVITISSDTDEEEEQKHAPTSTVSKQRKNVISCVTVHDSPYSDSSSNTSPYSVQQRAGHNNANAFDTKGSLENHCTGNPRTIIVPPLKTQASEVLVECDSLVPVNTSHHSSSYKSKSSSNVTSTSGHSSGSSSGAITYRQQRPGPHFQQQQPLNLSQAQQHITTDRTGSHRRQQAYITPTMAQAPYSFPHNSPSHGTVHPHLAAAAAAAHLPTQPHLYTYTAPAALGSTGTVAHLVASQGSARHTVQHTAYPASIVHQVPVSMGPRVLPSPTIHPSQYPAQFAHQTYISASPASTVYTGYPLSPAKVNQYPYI

HIPK4 = biological target: T3, HIPK4 (Homo sapiens, UniProt Q8NE63); design: purchased ProQinase (Freiburg, Germany); conditions: 10 μM; cited from earlier work
T3 sequence (Q8NE63 1-616): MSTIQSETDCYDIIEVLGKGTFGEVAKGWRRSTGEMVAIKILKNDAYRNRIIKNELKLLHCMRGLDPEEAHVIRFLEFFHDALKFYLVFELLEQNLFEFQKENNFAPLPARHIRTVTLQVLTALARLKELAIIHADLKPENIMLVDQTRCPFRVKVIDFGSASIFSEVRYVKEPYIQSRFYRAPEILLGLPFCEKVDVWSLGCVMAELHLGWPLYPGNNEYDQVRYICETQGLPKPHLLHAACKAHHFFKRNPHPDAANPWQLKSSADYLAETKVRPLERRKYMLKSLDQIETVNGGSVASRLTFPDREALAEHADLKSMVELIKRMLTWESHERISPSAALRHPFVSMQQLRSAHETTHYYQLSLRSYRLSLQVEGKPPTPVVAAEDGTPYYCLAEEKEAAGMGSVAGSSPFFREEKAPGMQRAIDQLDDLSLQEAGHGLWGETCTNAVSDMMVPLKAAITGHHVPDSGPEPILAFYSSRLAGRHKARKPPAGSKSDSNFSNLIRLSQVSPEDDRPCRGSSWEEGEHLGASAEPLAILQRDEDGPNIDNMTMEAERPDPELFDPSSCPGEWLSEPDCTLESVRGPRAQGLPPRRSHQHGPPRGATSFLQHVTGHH

IRAK1 = IRAK1 (Homo sapiens, UniProt P51617); design: purchased ProQinase (Freiburg, Germany); conditions: 10 μM; cited from earlier work
DYRK1A [3] = conditions: 10 μM; cited from earlier work
PIM3 = PIM3 (Homo sapiens, UniProt Q86V86); design: purchased ProQinase (Freiburg, Germany); conditions: 10 μM; cited from earlier work
HIPK1 = HIPK1 (Homo sapiens, UniProt Q86Z02); design: purchased ProQinase (Freiburg, Germany); conditions: 10 μM; cited from earlier work
Sequence of HIPK1 (Q86Z02 whole entry): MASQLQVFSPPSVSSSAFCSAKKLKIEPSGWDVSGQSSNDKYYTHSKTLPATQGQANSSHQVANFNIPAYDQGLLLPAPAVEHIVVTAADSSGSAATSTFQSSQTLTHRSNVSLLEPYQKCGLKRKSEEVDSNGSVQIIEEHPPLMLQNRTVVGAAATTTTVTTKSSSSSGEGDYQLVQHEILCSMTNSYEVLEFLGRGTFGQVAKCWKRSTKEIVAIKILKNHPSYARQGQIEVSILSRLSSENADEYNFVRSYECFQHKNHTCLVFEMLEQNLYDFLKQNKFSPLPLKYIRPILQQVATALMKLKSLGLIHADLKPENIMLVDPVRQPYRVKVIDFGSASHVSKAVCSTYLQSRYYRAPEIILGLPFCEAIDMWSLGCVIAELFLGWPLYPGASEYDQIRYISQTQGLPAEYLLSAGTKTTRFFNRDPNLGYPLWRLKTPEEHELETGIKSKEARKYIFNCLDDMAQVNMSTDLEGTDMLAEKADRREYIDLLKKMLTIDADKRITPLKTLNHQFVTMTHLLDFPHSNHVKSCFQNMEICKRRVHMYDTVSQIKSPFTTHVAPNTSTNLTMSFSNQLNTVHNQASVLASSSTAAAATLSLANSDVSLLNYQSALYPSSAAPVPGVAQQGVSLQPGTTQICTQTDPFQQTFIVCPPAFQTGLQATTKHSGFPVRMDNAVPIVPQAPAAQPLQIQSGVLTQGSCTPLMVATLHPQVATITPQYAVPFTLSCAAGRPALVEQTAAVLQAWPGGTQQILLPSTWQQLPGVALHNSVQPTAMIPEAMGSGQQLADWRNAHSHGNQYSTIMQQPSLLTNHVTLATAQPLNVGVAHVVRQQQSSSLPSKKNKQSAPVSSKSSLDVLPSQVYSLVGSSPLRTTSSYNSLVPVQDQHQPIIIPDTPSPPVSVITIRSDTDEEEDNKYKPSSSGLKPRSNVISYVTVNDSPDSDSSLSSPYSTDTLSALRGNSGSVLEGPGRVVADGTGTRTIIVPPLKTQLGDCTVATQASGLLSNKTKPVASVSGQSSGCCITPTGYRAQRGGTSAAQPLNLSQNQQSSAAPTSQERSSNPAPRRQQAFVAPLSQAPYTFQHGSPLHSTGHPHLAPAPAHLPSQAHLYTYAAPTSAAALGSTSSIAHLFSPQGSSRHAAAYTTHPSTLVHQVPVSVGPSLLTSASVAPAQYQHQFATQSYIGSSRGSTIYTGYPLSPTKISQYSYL

CLK3 = biological target: T4, CLK3 (Homo sapiens, UniProt P49761); conditions: 10 μM; cited from earlier work
T4 construct: purchased ProQinase (Freiburg, Germany)
T4 sequence (P49761 whole entry): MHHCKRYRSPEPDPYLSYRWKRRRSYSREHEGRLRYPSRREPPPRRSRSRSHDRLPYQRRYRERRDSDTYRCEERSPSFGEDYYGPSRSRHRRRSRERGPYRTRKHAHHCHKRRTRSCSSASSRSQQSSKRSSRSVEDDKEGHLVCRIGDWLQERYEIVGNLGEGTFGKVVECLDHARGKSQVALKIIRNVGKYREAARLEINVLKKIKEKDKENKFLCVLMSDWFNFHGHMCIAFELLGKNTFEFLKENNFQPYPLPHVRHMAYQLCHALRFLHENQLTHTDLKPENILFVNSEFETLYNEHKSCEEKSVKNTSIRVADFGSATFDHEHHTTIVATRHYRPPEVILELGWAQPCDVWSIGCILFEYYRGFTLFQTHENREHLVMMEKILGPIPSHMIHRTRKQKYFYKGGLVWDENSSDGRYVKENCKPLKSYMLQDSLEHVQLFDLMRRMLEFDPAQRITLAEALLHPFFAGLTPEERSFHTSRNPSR

DYRK2 = biological target: T5, DYRK2 (Homo sapiens, UniProt Q92630); experiment: Kinase-GLO luminescent kinase assay; type: biochemical; conditions: 1 μM compound; means of at least 3 measurements
T5 construct: purchased ProQinase (Freiburg, Germany)
T5 sequence (Q92630 1-601): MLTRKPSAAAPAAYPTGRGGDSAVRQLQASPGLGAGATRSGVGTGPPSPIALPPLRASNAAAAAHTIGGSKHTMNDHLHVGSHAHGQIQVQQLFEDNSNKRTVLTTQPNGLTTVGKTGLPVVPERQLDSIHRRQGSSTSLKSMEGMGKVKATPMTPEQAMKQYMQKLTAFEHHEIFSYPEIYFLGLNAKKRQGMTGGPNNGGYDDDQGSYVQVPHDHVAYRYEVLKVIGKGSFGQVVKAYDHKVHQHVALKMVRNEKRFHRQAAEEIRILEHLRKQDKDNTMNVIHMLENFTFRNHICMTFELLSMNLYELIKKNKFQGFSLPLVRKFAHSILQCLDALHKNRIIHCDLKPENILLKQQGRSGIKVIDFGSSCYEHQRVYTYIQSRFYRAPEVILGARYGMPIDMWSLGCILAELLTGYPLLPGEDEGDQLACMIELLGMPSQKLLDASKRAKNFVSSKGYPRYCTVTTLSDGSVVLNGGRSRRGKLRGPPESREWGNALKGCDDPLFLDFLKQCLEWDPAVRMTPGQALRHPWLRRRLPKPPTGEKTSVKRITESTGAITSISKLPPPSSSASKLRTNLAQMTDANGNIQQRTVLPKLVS
Procedure: (§1) Bacterial expression plasmids for GST-DYRK1A-ΔC and GST-DYRK2 have been described earlier. […] Expression in logarithmically growing E. coli culture was performed for 3 h at 37°C (GST-DYRK1A-ΔC and GST-DYRK2), 3 h at 26°C (GST-HIPK2cat), over night at 28°C (GST-CLK1cat) or over night at room temperature (GST-DYRK1Bcat).
(§2) Compounds were screened for inhibitory effects against GST-DYRK1A-ΔC, GST-DYRK1Bcat, GST-DYRK2, GST-CLK1cat or GST-HIPK2cat using the Kinase-GLO Luminescent Kinase Assay from Promega. Assays were performed in a total volume of 10 μL in kinase-buffer (25 mM Hepes pH 7.4, 0.5 mM DTT, 5 mM MgCl2, 5 μM ATP) with appropriate peptide substrates (20 μM DYRKtide for the DYRKs and 100 μM DYRKtide for HIPK2, […]; or 100 μM RS domain-derived peptide for CLK1, […]). Assays were started with this amount of a kinase preparation that consumed approximately 90% of the ATP in the assay (linear range of the kinase titration curve). The reactions were run at room temperature for 30 min before 10 μL Kinase-GLO reagent was added. After incubation at room temperature for additional 10 min, luminescence was recorded for 1 s.

DYRK1A [4] = biological target: T6, DYRK1A (Homo sapiens, UniProt Q13627); experiment: Kinase-GLO luminescent kinase assay; type: biochemical; conditions: 1 μM compound; means of at least 3 measurements
T6 construct: purchased ProQinase (Freiburg, Germany)
Procedure: as §1, §2

HIPK2 [5] = biological target: T2, HIPK2; experiment: Kinase-GLO luminescent kinase assay; type: biochemical; design: made in house; host or cells: E. coli; conditions: 10 μM compound; means of at least 3 measurements
Procedure: as §1, §2
Target sequence in this assay (Q9H2X6 180-533): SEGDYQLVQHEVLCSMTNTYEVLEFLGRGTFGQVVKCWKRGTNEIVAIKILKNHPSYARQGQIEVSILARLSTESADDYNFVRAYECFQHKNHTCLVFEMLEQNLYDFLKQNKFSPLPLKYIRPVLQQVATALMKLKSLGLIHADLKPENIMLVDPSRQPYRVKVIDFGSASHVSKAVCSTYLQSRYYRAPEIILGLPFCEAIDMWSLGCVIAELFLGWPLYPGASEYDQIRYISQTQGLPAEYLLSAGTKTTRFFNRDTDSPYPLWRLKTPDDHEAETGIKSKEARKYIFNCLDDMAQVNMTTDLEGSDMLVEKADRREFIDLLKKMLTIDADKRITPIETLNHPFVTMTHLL

DYRK1B = DYRK1B (Homo sapiens, UniProt Q9Y463); experiment: Kinase-GLO luminescent kinase assay; type: biochemical; design: made in house; host or cells: E. coli; conditions: 1 μM compound; means of at least 3 measurements
Procedure: as §1, §2

CLK1 [6] = biological target: T1, CLK1; experiment: Kinase-GLO luminescent kinase assay; type: biochemical; design: made in house; host or cells: E. coli; conditions: 1 μM compound; means of at least 3 measurements
Procedure: as §1, §2
Target sequence in this assay (P49759 141-484): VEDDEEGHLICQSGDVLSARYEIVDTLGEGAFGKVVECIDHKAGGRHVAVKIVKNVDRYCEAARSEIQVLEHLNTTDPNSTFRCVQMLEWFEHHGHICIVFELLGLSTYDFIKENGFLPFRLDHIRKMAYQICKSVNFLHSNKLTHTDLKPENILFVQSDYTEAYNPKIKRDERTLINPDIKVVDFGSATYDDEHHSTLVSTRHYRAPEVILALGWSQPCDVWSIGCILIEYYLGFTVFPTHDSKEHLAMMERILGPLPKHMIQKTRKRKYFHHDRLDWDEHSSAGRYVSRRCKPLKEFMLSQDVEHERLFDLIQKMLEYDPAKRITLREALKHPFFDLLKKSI

Cell viability XTT assay [7] = type: cell-based; conditions: human, HeLa, 1 μM, read-out: Viability of treated cells relative to untreated control
Cell viability XTT assay [8] = type: cell-based; conditions: human, SH-SY5Y, 1 μM, read-out: Viability of treated cells relative to untreated control
Cell viability XTT assay [9] = type: cell-based; conditions: rat, PC12, 1 μM, read-out: Viability of treated cells relative to untreated control

Sequence of PIM2 (Q9P1W9 whole entry): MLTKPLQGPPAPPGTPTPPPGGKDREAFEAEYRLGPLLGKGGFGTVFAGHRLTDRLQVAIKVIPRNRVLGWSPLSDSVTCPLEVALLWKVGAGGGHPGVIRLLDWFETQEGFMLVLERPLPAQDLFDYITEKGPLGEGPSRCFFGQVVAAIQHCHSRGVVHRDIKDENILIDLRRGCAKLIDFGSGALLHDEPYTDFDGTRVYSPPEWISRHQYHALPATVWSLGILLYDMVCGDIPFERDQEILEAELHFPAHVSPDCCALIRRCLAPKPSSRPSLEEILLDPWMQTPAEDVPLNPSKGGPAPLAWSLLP

| Residual activity (% of control) DYRK2 (DYRK2) | Residual activity (% of control) DYRK1A (DYRK1A [4]) | Residual activity (% of control) HIPK2 (HIPK2 [5]) | Residual activity (% of control) DYRK1B (DYRK1B) | Residual activity (% of control) CLK1 (CLK1 [6]) | SMILES | further results |
| --- | --- | --- | --- | --- | --- | --- |
|  |  |  |  |  | O=C1NC(Nc2ccccc2)=N/C1=C\c1ccc2c(c1)OCO2 [L41] | Residual activity (% of control) (PIM2): 41 % of control; Residual activity (% of control) (CLK1 [1]): 0 % of control; Residual activity (% of control) (HIPK2 [2]): 11 % of control; Residual activity (% of control) (HIPK4): 44 % of control; Residual activity (% of control) (IRAK1): 3 % of control; Residual activity (% of control) (DYRK1A [3]): 0 % of control; Residual activity (% of control) (PIM3): 27 % of control; Residual activity (% of control) (HIPK1): 1 % of control; Residual activity (% of control) (CLK3): 2 % of control |
| 51 % of control | 27 % of control | 95 % of control | 50 % of control | 58 % of control | COc1ccc2c(c1)[nH]c1c(/C=C/c3ccccc3)nccc12 [AnnH18_5] |  |
| 85 % of control | 12 % of control | 97 % of control | 35 % of control | 46 % of control | C#CCn1c2cc(OC)ccc2c2ccnc(Cl)c21 [AnnH74] |  |
|  |  |  |  |  | CN[C@@H]1C[C@H]2O[C@@](C)([C@@H]1OC)n1c3ccccc3c3c4c(c5c6ccccc6n2c5c31)C(=O)NC4 [Staurosporine, reference compound] | viability at 3 days, 1 µM (Cell viability XTT assay [7]): 8%; viability at 3 days, 1 µM (Cell viability XTT assay [8]): 6%; viability at 3 days, 1 µM (Cell viability XTT assay [9]): 18% |

| SMILES | Residual activity (% of control) DYRK2 (DYRK2) | Residual activity (% of control) DYRK1A (DYRK1A [4]) | Residual activity (% of control) HIPK2 (HIPK2 [5]) | Residual activity (% of control) DYRK1B (DYRK1B) | Residual activity (% of control) CLK1 (CLK1 [6]) | further results |
| --- | --- | --- | --- | --- | --- | --- |
| Cc1nccc2c3ccc(Cl)c(Cl)c3n(CC#N)c12 [AnnH69] | 61 % of control | 17 % of control | 33 % of control | 60 % of control | 33 % of control |  |
